Experimental data reported in patent US12016864B2, “LOX enzyme inhibiting methods and compositions” (ANOVIA BIOSCIENCES, INC., priority 2021, dated 2024).

Columns and labels:
Type in all cases: biochemical
[1] = target: T1, Bovine lysyl oxidase (LOX) (Bos taurus, UniProt P33072); test: LOX inhibition assay, fluorometric (cadaverine / HRP / Amplex Red); conditions: LOX extracted from bovine tendon, 30 min preincubation at 37° C., 5 mM cadaverine
T1 construct: from tissue; host or cells: adult bovine tendon
T1 sequence (P33072 170-418): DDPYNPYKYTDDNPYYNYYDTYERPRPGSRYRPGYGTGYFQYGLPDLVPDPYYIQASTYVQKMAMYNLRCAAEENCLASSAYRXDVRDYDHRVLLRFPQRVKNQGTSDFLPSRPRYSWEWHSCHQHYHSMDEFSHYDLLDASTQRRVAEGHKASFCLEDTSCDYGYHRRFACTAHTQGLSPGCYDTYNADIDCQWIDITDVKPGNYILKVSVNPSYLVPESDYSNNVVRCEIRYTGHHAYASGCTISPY
Method: The ability of compounds to inhibit prototypic LOX was determined using a fluorometric assay. This assay measures the activity of lysyl oxidases by coupling the reaction with horseradish peroxidase-catalyzed […]. The activity assay protocol uses cadaverine as substrate that releases hydrogen peroxide upon transformation by prototypic LOX enzyme present in the sample. Hydrogen peroxide was in turn detected using a red fluorescence substrate for HRP-coupled reactions (Amplex Red Enzyme Assays, Thermo Scientific Fisher). This lead to an increase in fluorescence that can be easily detected at Ex/Em=540/590 nm in a fluorescence microplate
Bovine lysyl oxidase (LOX) was extracted by adapting the methodology from [Kagan et al. 1979 and Borel et al. 2001.] from bovine tendon: Frozen adult bovine tendon was placed in room temperature water to defrost, and then membranes were removed and the remaining tissue cut into 1 cm pieces. The material was first passed through a course mesh meat grinder, and this mince was passed through a fine mesh grinder. The mince was homogenized in 10 v/w of buffer (16 mM sodium phosphate buffer pH 7.8, 400 mM NaCl) using a Waring blender. The homogenate was centrifuged at 15,000×g for 15 min at 4° C. After centrifugation, the supernatant was discarded and the pellets resuspended in 10 volumes of the same buffer. The mixture was blended again and centrifuged with the same settings. This time the pellets were blended in 3 volumes of extraction buffer (16 mM sodium phosphate buffer pH 7.8) and left to incubate at 4° C. for 2 h. After this time, the slurry was centrifuged with the same settings as described above. The supernatant was used in an ultrafiltration step to remove large proteins by size exclusion through a 30 kDalton filter (EMD Millipore). The filtrate was mixed with DEAE Sephadex (GE Healthcare), or passed over a MonoQ FPLC column. After two washes, one in 16 mM sodium phosphate buffer pH 7.8, 380 mM NaCl, and another in 16 mM sodium phosphate buffer pH 7.8, the proteins were eluted with 16 mM sodium phosphate pH 7.8, 10 μM CuSO4, and 4 M urea. Fractions containing Lox activity were collected and stored frozen at −70° C.
Final concentration in the LOX assay is shown in Table 6 below and performed in a total volume of […].
7 μl of freshly prepared reaction buffer were delivered to reaction wells. Compounds were resuspended in 100% DMSO at 10 mM and delivered into buffer using acoustic technology (Echo550; nanoliter range). A 2.85× solution of LOX protein in reaction buffer was prepared (“LOX solution”) and 7 μl of LOX solution was added into the reaction wells. Buffer only was added to column 1 for no protein control. Reactions were incubated for 30 minutes at 37° C. A 3.33× mixture of cadaverine, Amplex Red, and HRP (“Substrate/Detection Mix) was prepared and subsequently 6 μL of the mixture was added to each reaction well. Progress of reactions was monitored for 120 minutes at 37° C. using Clariostar plate reader (ex530-12, ems 600-40). For all activity assays, pan-LOX inhibitor CCT365623 (Tang et al, 2017) and LOXL2/LOXL3 inhibitor PAT-1251 (PharmaKea) were included as standards.
The slope of the linear portion of the progress curve was calculated using Clariostar software. Typical analysis interval was between 20-50 min, but varied between experiments. The background subtracted signals (No protein wells were considered as background) were converted to % activity relative to DMSO controls. Data was analyzed using GraphPad Prism 4 with “sigmoidal dose-response (variable slope)”; 4 parameters with Hill Slope. Constraints: Bottom=Constant equal to 0. Top=Must be less than 120.

[2] = target: T2, Recombinant human LOXL2 (lysyl oxidase like 2) (Homo sapiens, UniProt Q9Y4K0); test: LOXL2 inhibition assay, fluorometric (cadaverine / HRP / Amplex Red); conditions: recombinant human LOXL2 130 nM; 30 min preincubation at 37° C.; 2.5 mM cadaverine; read-out: Activity Range LOXL2
T2 construct: purchased R&D systems
T2 sequence (Q9Y4K0 26-774): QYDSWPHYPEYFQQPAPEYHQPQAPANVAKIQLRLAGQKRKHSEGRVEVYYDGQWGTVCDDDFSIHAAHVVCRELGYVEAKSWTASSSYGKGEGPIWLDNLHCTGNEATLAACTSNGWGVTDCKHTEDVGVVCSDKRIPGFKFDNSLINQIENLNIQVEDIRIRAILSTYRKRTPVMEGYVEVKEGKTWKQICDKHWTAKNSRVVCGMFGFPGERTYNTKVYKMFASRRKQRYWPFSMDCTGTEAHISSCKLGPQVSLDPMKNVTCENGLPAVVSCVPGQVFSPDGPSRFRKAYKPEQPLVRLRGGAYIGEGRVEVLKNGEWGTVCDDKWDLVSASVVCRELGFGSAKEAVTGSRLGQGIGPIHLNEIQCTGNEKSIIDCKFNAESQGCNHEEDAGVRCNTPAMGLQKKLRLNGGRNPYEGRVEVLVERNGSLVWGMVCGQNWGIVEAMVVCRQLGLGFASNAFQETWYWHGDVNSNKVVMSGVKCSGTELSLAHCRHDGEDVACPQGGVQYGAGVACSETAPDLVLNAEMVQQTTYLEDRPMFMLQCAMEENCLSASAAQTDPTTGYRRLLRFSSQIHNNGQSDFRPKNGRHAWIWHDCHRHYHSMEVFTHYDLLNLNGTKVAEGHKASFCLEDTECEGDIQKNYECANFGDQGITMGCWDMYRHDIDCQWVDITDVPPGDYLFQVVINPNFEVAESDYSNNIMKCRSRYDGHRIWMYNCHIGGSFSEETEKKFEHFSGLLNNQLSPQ
Method: (§1) The ability of compounds to inhibit one or more of the lysyl oxidases LOXL2 and/or LOXL3 was determined using a fluorometric assay. This assay measures the activity of lysyl oxidases by coupling the reaction with horseradish peroxidase-catalyzed […]. The activity assay protocol uses cadaverine as substrate that releases hydrogen peroxide upon transformation by the specific LOX family enzyme present in the sample. Hydrogen peroxide is in turn detected using a red fluorescence substrate for HRP-coupled reactions (Amplex Red Enzyme Assays, Thermo Scientific Fisher). This leads to increase in fluorescence that can be easily detected at Ex/Em=540/590 nm in a fluorescence microplate reader.
(§2) Recombinant human LOXL2 (lysyl oxidase like 2) and recombinant human LOXL3 (lysyl oxidase like 3) were purchased from R&D systems and assays were performed in 1.2 M urea, 50 mM sodium borate buffer pH 8.0, and 10 mM CaCl.
(§3) 5 μl of freshly prepared reaction buffer were delivered to reaction wells. Compounds were resuspended in 100% DMSO at 10 mM and delivered into buffer using acoustic technology (Echo550; nanoliter range). A 3× solution of LOXL2 or LOXL3 in reaction buffer was prepared (“enzyme solution”) and 5 μL of enzyme solution was added into the reaction wells. Buffer only was added to column 1 for no protein control. Reactions were incubated for 30 minutes at 37° C. A 3× mixture of cadaverine, Amplex Red, and HRP (“Substrate/Detection Mix) was prepared and subsequently 5 μL of the mixture added to each reaction well. Progress of reactions was monitored for 60 minutes at 37° C. using Clariostar plate reader (ex 530-12, ems 600-40). For all activity assays, pan-LOX inhibitor CCT365623 (Tang et al, 2017) and LOXL2/LOXL3 inhibitor PAT-1251 (PharmaKea) were included as standards.
(§4) For the data analysis, the slope of the linear portion of the progress curve was calculated using Clariostar software. Typical analysis interval was between 8-30 min, but varied between experiments. The background-subtracted signals (No protein wells are considered as background) were converted to % activity relative to DMSO controls. Data was analyzed using GraphPad Prism 4 with “sigmoidal dose-response (variable slope)”; 4 parameters with Hill Slope. Constraints: Bottom=Constant equal to 0. Top=Must be less than 120.

[3] = target: T3, Recombinant human LOXL3 (lysyl oxidase like 3) (Homo sapiens, UniProt P58215); test: LOXL3 inhibition assay, fluorometric (cadaverine / HRP / Amplex Red); conditions: recombinant human LOXL3 150 nM; 30 min preincubation at 37° C.; 1 mM cadaverine; read-out: Activity Range LOXL3
T3 construct: purchased R&D systems
T3 sequence (P58215 26-753): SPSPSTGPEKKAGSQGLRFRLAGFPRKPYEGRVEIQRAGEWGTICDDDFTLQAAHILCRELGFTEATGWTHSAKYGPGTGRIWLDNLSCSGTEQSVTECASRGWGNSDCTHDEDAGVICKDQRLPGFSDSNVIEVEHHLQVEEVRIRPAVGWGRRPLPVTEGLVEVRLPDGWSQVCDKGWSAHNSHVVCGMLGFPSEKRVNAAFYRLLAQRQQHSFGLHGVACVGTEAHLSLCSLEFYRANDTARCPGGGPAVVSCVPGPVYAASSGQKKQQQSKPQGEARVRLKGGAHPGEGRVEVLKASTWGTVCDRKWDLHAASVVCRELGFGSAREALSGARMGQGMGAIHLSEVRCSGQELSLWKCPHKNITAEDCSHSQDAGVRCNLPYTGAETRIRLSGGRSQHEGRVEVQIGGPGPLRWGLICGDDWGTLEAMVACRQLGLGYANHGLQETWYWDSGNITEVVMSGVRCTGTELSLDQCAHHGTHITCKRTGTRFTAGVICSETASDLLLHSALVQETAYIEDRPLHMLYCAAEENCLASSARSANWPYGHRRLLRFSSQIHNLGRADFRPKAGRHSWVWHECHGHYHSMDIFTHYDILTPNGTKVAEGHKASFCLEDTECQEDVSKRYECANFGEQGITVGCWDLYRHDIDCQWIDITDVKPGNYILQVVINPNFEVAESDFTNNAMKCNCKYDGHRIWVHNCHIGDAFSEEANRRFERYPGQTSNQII
Method: as §1, §2, §3, §4

Structure (SMILES) | Activity Range LOX [1] | IC50 [2] | IC50 ([1]; read-out: Activity Range LOX) | IC50 [3]
NCc1ccnc(OC[C@@H]2C[C@H](c3ccc(F)cc3)CN2S(=O)(=O)N2CCS(=O)(=O)CC2)c1.O=C(O)C(F)(F)F (racemic) [Example 214, cis-((2-(((4-(Aminomethyl)pyridin-2-yl)oxy)methyl)-4-(4-fluorophenyl)pyrrolidin-1-yl)sulfonyl)thiomorpholine 1,1-dioxide 2,2,2-trifluoroacetate] | Inactive | ≤ 500 nM |  | 
NCc1cccc(OC[C@@H]2C[C@H](c3ccc(F)cc3)CN2S(=O)(=O)N2CCOCC2)c1.O=C(O)C(F)(F)F (racemic) [Example 216, cis-(3-((4-(4-Fluorophenyl)-1-(morpholinosulfonyl)pyrrolidin-2-yl)methoxy)phenyl)methanamine 2,2,2-trifluoroacetate] | Inactive | 500 to 1000 nM |  | 
NCc1cccc(OC[C@@H]2C[C@H](c3ccc(F)cc3)CN2S(=O)(=O)N2CCS(=O)(=O)CC2)c1 (racemic) [Example 218, cis-4-((2-((3-(Aminomethyl)phenoxy)methyl)-4-(4-fluorophenyl)pyrrolidin-1-yl)sulfonyl)thiomorpholine 1,1-dioxide] |  | ≤ 500 nM | 1000 to 30000 nM | 
NCc1ccnc(OC[C@@H]2C[C@H](C3CCCCC3)CN(S(=O)(=O)N3CCS(=O)(=O)CC3)C2)c1 (racemic) [Example 235, cis-4-((3-(((4-(Aminomethyl)pyridin-2-yl)oxy)methyl)-5-cyclohexylpiperidin-1-yl)sulfonyl)thiomorpholine 1,1-dioxide 2,2,2-trifluoroacetate] |  | ≤ 500 nM |  | 500 to 1000 nM

Continued, values first:

Activity Range LOX [1] | IC50 [2] | IC50 ([1]; read-out: Activity Range LOX) | IC50 [3] | Structure (SMILES)
 | ≤ 500 nM |  | ≤ 500 nM | NCc1ccnc(OC[C@@H]2C[C@H](C3CCCCC3)CN2S(=O)(=O)N2CCOCC2)c1 (relative stereo) [Example 239, cis-(2-((4-Cyclohexyl-1-(morpholinosulfonyl)pyrrolidin-2-yl)methoxy)pyridin-4-yl)methanamine 2,2,2-trifluoroacetate]
 | ≤ 500 nM |  | ≤ 500 nM | NCc1ccnc(OC[C@@H]2C[C@@H](C3CCCCC3)CN2S(=O)(=O)N2CCOCC2)c1 [Example 239T, trans-(2-((4-Cyclohexyl-1-(morpholinosulfonyl)pyrrolidin-2-yl)methoxy)pyridin-4-yl)methanamine 2,2,2-trifluoroacetate]
